Measurements from PMC8533253, “Bis-thiobarbiturates as Promising Xanthine Oxidase Inhibitors: Synthesis and Biological Evaluation” (Biomedicines, 2021).

What was measured:
[1] = Antioxidant assay, DPPH method; conditions: 60 min
Protocol: (§1) XO inhibitory and antioxidant assays were performed in triplicate while antiproliferative assay was conducted in quadruplicate. For each assay, at least two independent experiments were performed. An initial screening at the concentration of 30 μM for all compounds under study was performed in each in vitro study. A second screening at 5 μM was performed for compounds that originated an inhibitory potential higher than 80% for the XO activity at 30 μM. Half-maximal inhibitory concentration (IC50) studies were performed for drugs used as a reference and for the most promising bis-thiobarbiturate in XO inhibitory, antioxidant, and cytotoxicity assays.
Antioxidant potential was spectrophotometrically evaluated by the 2,2-diphenyl-1-picrylhydrazyl (DPPH, Sigma-Aldrich, St. Louis, MO, USA) method. All solutions and dilutions were prepared in 99.5% ethanol before each experiment. For each assay, 100 μL of the test solution and 100 μL of DPPH solution (0.2 mM) were added to each well of a 96 wells Elisa microplate. […] After 60 min of incubation in dark at rt, the capacity of each compound to reduce DPPH was followed by measuring the absorbance at 517 nm. Ethanol was used as a negative control and Trolox as the positive control. To discount the absorbance of each compound at 517 nm, a blank was performed with 100 μL of each test compound and 100 μL of ethanol. The antioxidant capacity of each sample was calculated according to the following formula:% DPPH scavenging = [1 − (ABSsample − ABSblank of sample)/ABSnegative control] × 100
(§2) All in vitro results are expressed as mean values ± standard deviation (SD) of at least two independent determinations. The difference between groups was analyzed for each assay by Student’s t-test. The IC50 values were calculated by sigmoidal fitting analysis considering a 95% confidence interval.

[2] = Cytotoxicity/antiproliferative assay (MTT) on Caco-2; assay type: cell-based; conditions: human, read-out: Cytotoxicity (% cell viability at 30 µM) Caco-2
Protocol: as §1
(§3) The cytotoxic potential of the compounds being studied was evaluated by quantifying the extent of the reduction of 3-(4,5-dimethylthiazol-2-yl)-2,5-diphenyltetrazolium bromide (MTT, VWR, Radnor, PA, USA) on tumor cell lines of the colon (Caco-2) and breast (MCF-7) adenocarcinoma and non-tumor human dermal fibroblasts (NHDF). All cell lines were obtained from the American Type Culture Collection (ATCC, Manassas, VA, USA) and were maintained in 75 cm^2 culture flasks in a humidified air incubator with 5% CO2 at 37 °C. NHDF cells have grown in RPMI 1640 medium (Sigma-Aldrich, St. Louis, MO, USA) supplemented with 10% fetal bovine serum (FBS), 10 mM 4-(2-hydroxyethyl)-1-piperazineethanesulfonic acid (HEPES), 2 mM L-glutamine, 1 mM sodium pyruvate, and 1% antibiotic/antimycotic (Ab: 10,000 units/mL penicillin G, […] streptomycin and 25 μg/mL amphotericin B). MCF-7 cells were cultured in high-glucose Dulbecco’s modified Eagle medium (DMEM, Sigma-Aldrich, St. Louis, MO, USA) supplemented with 10% FBS, and 1% Ab. The Caco-2 cell line was cultured in a high glucose DMEM supplemented with 20% FBS and 1% of the antibiotic mixture (Sp: 10,000 units/mL penicillin G and […] of streptomycin). For the assay, cells were seeded in 96-well plates (2 × 10^4 cells/mL) in the culture medium. After 48 h of adherence, cells were treated with the test solutions and incubated for 72 h. […] Untreated cells were used as a negative control and 5-FU as the positive control. Following incubation, the medium was removed and replaced with a fresh incomplete culture medium (without FBS and Ab or Sp) and MTT solution [5 mg/mL in phosphate buffer saline (PBS)]. After further incubation for 4 h at 37 °C, the medium with MTT was removed, formazan crystals were dissolved in DMSO, and the absorbance was read at 570 nm. Results were expressed as the relative cell proliferation in comparison with the negative control cells.
as §2

[3] = Cytotoxicity assay (MTT) on NHDF; assay type: cell-based, human; conditions: human, NHDF cells (non-tumor human dermal fibroblasts), 72 h, MTT; for viability at 72 h, 30 µM: read-out: Cytotoxicity (% cell viability at 30 µM) NHDF
Protocol: as §1, §3, §2

[4] = Cytotoxicity/antiproliferative assay (MTT) on MCF-7; assay type: cell-based; conditions: human, MCF-7 cells (breast adenocarcinoma), read-out: Cytotoxicity (% cell viability at 30 µM) MCF-7
Protocol: as §1, §3, §2

Xanthine oxidase (XO) = target: T1, Xanthine oxidase (XO) (Bos taurus, UniProt P80457); test: XO inhibitory assay (spectrophotometric quantification of uric acid formation at 295 nm); assay type: biochemical; conditions: for inhibition at 5 µM / inhibition at 30 µM: read-out: XO inhibition (%)
T1 construct: purchased Sigma-Aldrich X4875
T1 sequence (P80457 whole entry): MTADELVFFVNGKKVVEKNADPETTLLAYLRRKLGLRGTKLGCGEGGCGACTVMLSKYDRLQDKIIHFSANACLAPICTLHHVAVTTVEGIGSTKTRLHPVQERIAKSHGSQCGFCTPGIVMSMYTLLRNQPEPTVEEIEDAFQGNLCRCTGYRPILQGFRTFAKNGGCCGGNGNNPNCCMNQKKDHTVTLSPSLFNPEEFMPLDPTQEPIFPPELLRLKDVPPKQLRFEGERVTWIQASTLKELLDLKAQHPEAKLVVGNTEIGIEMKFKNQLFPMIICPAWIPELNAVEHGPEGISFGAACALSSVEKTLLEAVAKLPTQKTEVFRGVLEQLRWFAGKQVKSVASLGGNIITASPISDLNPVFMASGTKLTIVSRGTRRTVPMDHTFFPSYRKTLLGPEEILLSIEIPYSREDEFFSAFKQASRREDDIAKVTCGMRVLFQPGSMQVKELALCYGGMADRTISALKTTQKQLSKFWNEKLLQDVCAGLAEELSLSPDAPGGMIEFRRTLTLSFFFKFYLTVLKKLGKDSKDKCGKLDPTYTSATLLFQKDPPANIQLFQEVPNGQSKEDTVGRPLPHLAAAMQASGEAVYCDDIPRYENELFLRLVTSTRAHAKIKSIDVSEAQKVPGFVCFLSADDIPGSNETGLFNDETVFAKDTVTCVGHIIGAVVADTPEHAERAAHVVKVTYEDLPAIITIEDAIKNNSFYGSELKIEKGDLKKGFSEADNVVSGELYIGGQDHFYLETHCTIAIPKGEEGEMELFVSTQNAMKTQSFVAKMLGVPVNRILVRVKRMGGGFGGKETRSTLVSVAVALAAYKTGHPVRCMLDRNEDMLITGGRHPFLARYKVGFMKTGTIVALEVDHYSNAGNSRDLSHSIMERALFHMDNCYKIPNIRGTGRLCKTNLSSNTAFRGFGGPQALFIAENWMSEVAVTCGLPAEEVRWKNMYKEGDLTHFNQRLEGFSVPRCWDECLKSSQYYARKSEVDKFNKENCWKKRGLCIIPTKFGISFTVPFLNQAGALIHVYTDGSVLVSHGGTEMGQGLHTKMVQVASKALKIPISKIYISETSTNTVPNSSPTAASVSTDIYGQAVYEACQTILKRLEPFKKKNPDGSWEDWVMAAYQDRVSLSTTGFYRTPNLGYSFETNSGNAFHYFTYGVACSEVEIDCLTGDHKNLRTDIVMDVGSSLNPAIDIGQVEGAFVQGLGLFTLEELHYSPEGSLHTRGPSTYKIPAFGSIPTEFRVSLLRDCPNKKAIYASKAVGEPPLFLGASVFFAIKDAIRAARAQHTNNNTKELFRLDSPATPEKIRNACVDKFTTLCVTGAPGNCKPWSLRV
Protocol: as §1, with “A second screening at 5 μM was performed for compounds that originated an inhibitory potential higher than 80% for the XO activity at 30 μM.” left out
The XO inhibitory activity was evaluated by spectrophotometric quantification of uric acid formation. The 50 mM dihydrogen phosphate buffer (pH 7.4) was used to dilute all solutions. For each assay performed, 50 μL of the test solution and 50 μL of the 0.1 U/mL XO (Sigma-Aldrich X4875, St. Louis, MO, USA) solution were added in each well of an Elisa microplate (96 wells) followed by 5 min of incubation at 37 °C. […] The reaction started with the addition of 150 μL of a xanthine solution (420 μM). The absorbance was recorded at a wavelength of 295 nm every minute for 10 min. To obtain only the absorbance associated with uric acid, a solution consisting of 50 μL of the test solution, 150 μL of the xanthine solution, and 50 μL of buffer were used as blank. […] For each compound, the percentage of enzyme inhibition was calculated according to the following formula:% of XO inhibition = [1 − (ABSsample − ABSblank of sample)/ABSnegative control] × 100
as §2

[5] = system: NHDF cells (non-tumor human dermal fibroblasts); test: Cytotoxicity assay (MTT) on NHDF; assay type: cell-based
Protocol: as §1, §3, §2

SMILES	DPPH (% scavenging at 30 µM) [1]	viability at 72 h, 30 µM [2]	viability at 72 h, 30 µM [3]	viability at 72 h, 30 µM [4]	inhibition at 5 µM (Xanthine oxidase (XO))	inhibition at 30 µM (Xanthine oxidase (XO))	melting point	IC50 ([1]; read-out: DPPH Scavenging IC50)	selectivity index for DPPH scavenging activity ([5]; NHDF cytotoxicity versus DPPH scavenging)	selectivity index for XO inhibition ([5]; NHDF cytotoxicity versus XO inhibition)	IC50 at 72 h [3]	IC50 (Xanthine oxidase (XO))
CCn1c(O)c(C(c2ccc([N+](=O)[O-])cc2)c2c(O)n(CC)c(=S)n(CC)c2=O)c(=O)n(CC)c1=S [Compound 6, 5,5′-((4-Nitrophenyl)methylene)bis(1,3-diethyl-6-hydroxy-2-thioxo-2,3-dihydropirimidin-4(1H)-one)]	34.99 ± 1.32%	100 ± 4.45%	99.8 ± 5.43%	91.7 ± 1.48%	56.8%	92.2%	202 to 204 °C					
CCn1c(O)c(C(c2ccccc2[N+](=O)[O-])c2c(O)n(CC)c(=S)n(CC)c2=O)c(=O)n(CC)c1=S [Compound 13, 5,5′-((2-Nitrophenyl)methylene)bis(1,3-diethyl-6-hydroxy-2-thioxo-2,3-dihydropyrimidin-4(1H)-one)]	29.90 ± 0.50%	95.4 ± 4.17%	75.8 ± 2.41%	98.2 ± 3.25%	37.4%	89.7%	172 to 173 °C					
O=c1[nH]c(=S)[nH]c(O)c1C(c1ccc([N+](=O)[O-])cc1)c1c(O)[nH]c(=S)[nH]c1=O [Compound 7, 5,5′-((4-Nitrophenyl)methylene)bis(6-hydroxy-2-thioxo-2,3-dihydropyrimidin-4(1H)-one)]	32.41 ± 0.26%	97.1 ± 3.63%	96.6 ± 4.32%	98.7 ± 4.83%		20.9%	225 °C (dec.)					
CCn1c(O)c(C(c2ccc(C)cc2)c2c(O)n(CC)c(=S)n(CC)c2=O)c(=O)n(CC)c1=S [Compound 4, 5,5′-(p-Tolymethylene)bis(1,3-diethyl-6-hydroxy-2-thioxo-2,3-dihydropyrimidin-4(1H)-one)]	42.64 ± 0.81%	98.6 ± 5.7%	95.6 ± 7.26%	90.6 ± 3.92%		36.5%	163 to 164 °C					
CCn1c(O)c(C(c2ccccc2)c2c(O)n(CC)c(=S)n(CC)c2=O)c(=O)n(CC)c1=S [Compound 3, 5,5′-(Phenylmethylene)bis(1,3-diethyl-6-hydroxy-2-thioxo-2,3-dihydropyrimidin-4(1H)-one)]	34.58 ± 0.96%	91.2 ± 9.87%	88.7 ± 1.4%	90 ± 5.33%	10.4%	80.2%	177 to 179 °C					
CCn1c(O)c(C(C(C)=Cc2ccccc2)c2c(O)n(CC)c(=S)n(CC)c2=O)c(=O)n(CC)c1=S [Compound 18, 5,5′-(2-Methyl-3-phenylprop-2-ene-1,1-diyl)bis(1,3-diethyl-6-hydroxy-2-thioxo-2,3-dihydropyrimidin-4(1H)-one)]	31.04 ± 0.66%	94.7 ± 7.19%	86.5 ± 2.38%	88.3 ± 3.29%	63.4 ± 2.1%	98.85 ± 0.82%	145 to 146 °C					
CCn1c(O)c(C(c2cccnc2)c2c(O)n(CC)c(=S)n(CC)c2=O)c(=O)n(CC)c1=S [Compound 19, 5,5′-(Pyridin-3-ylmethylene)bis(1,3-diethyl-6-hydroxy-2-thioxo-2,3-dihydropyrimidin-4(1H)-one)]	3.83 ± 2.44%	80.7 ± 13%	81 ± 3.57%	93.7 ± 5.68%	67.3 ± 1.27%	91.7 ± 1.87%	253 to 254 °C					
CCn1c(O)c(C(c2cccc(O)c2)c2c(O)n(CC)c(=S)n(CC)c2=O)c(=O)n(CC)c1=S [Compound 12, 5,5′-((3-Hydroxyphenyl)methylene)bis(1,3-diethyl-6-hydroxy-2-thioxo-2,3-dihydropyrimidin-4(1H)-one)]	42.92 ± 0.61%	90.9 ± 3.84%	85.6 ± 7.17%	91.7 ± 4.91%		72.2%	191 to 193 °C					
CCn1c(O)c(C(c2ccc(C#N)cc2)c2c(O)n(CC)c(=S)n(CC)c2=O)c(=O)n(CC)c1=S [Compound 5, 4-(Bis(1,3-diethyl-6-hydroxy-4-oxo-2-thioxo-1,2,3,4-tetrtahydropyrimidin-5-yl)methyl)benzonitrile]	34.76 ± 1.42%	62.5 ± 11.9%	86.5 ± 5.92%	90.7 ± 4.06%	52.9%	86.1%	199 to 200 °C					
CCn1c(O)c(C(c2ccc(Br)cc2)c2c(O)n(CC)c(=S)n(CC)c2=O)c(=O)n(CC)c1=S [Compound 11, 5,5′-((4-Bromophenyl)methylene)bis(1,3-diethyl-6-hydroxy-2-thioxo-2,3-dihydropyrimidin-4(1H)-one)]	57.25 ± 0.98%	72.3 ± 9.76%	94.3 ± 7.84%	92.2 ± 3.68%	80.9%	95.7%		24.7 ± 0.88 µM	3.77	52.04	93.2 ± 5.54 µM	1790 ± 70 nM
